Consider one compound from patent publication US20220267269A1, “COMPOUNDS FOR THE MODULATION OF PROPROTEIN CONVERTASE SUBTILISIN/KEXIN TYPE 9 (PCSK9)” (SRX Cardio, LLC, priority 2019, published 2022).

Data set [1] has as its target T1, PCSK9 (Homo sapiens, UniProt Q8NBP7).
T1 construct: purchased Cayman Chemical 20631
Briefly: Fluorescent-LDL uptake analysis by flow cytometric analysis. The data set is classed as cell-based. On the procedure:
Cells, such as HuH7, FL83B, or a cell line transfected with a short-hairpin PCSK9 knockdown sequence such as HuH7/shPCSK9 or FL83B/shPCSK9 were plated and cultured at 37° C. for 12-24 h. Culture media was removed and replaced with fresh lipoprotein-depleted culture media supplemented with 5 μg/mL of fluorescently labeled LDL or lipoprotein-depleted culture media supplemented with 5 μg/mL of fluorescently labeled LDL plus a concentration of recombinant PCSK9 (for example 5 μg/mL recombinant PCSK9; Cayman Chemical, Cat. #20631). Examples of fluorescently labeled LDL include: DiI-LDL (Kalen Biomedical), or LDL conjugated to Dylight (e.g., LDL-Dylight 488, or LDL-Dylight 550 (Cayman Chemical, Cat. #10011229)). Lipoprotein-depleted culture media was composed of DMEM (Invitrogen) with 10% lipoprotein-depleted fetal bovine serum (Kalen Biomedical) and supplemented with penicillin-streptomycin (Life Technologies). Cells were dosed with small molecule test compounds at doses ranging from 0 nM to 100 μM, following a protocol adapted from Benjannet et al., “Effects of the prosegment and pH on the activity of PCSK9: evidence for additional processing events” J Biol Chem. 285(52):40965-40978 (2010), which is incorporated by reference in its entirety.
Following an incubation period of specified length, such as 16 hours, the lipoprotein-depleted media was removed and cells rinsed three times with a rinse solution (Dulbecco's phosphate buffered saline (D-PBS, Life Technologies), supplemented with 0.5% bovine serum albumin (BSA, Sigma) and 1 g/L glucose (Sigma)). The fluid was then removed, and cells are released from the plate using TrypLE Express (Life Technologies) per manufacturer's recommended procedures, such as incubation for 5-10 minutes at 37° C. The TyrpLE-Cell suspension was then transferred to 15 mL conical tubes, volume was increased to 2 mL with D-PBS supplemented with 0.5% BSA, and […], and the tubes were centrifuged at 250×gravity for 10 minutes. Following centrifugation, the supernatant was aspirated and the cell pellet was resuspended in 300 μL PBS and counterstained with 4′,6-diamidino-2-phenylindole (DAPI, Cayman Chemical) as a cell viability marker, other cell viability markers such as 7-aminoactinomycin D (7AAD, Life Technologies) have also been described in the art.
Cells were analyzed by for both 7AAD (dead cells) and fluorescent LDL in live cells using a flow cytometer per the manufacturer's operating manual. Cells incubated with small molecule compounds that are inhibitors of PCSK9 will be expected to show increased amounts of LDL fluorescence, relative to control (no compound) specimens, and cells incubated with small molecule compounds that are activators of PCSK9 will be expected to show decreased amounts of LDL fluorescence relative to control (no compound) specimens.
The LDL-uptake EC50 is provided as follows: +++: <0.5 μM; ++: 0.5-1μM; +: >1 μM.
For orientation: Flow cytometry measures light scatter and fluorescence of single cells or particles in a stream.

Data set [2] in a line: In vivo PK in mice (IV and PO). The following applies: male, C57BL/6, mouse, plasma. As to the method: (§1) A representative compound (Compound 1041) was tested for oral bioavailability and efficacy in mice. Male C57BL/6 mice were purchased from Taconic Biosciences (Rensselaer, New York) and housed under standard conditions with the exception of being provided a high fat diet (#TD.90221, Envigo, Madison, Wis.) and water ad libitum. Following 4 weeks of diet acclimation the animals were then dosed with compound or vehicle as control specimens. Compound readily dissolved at 1.5 mg/ml in a 1% Tween-80 aqueous solution with 10-15 minutes sonication. This solution was used at the 1.5 mg/ml concentration for oral (PO) dosing or further diluted with sterile saline for intravenous (IV) dosing.
Test animals received a single dose at 3 mg/kg by IV or 15 mg/kg by PO while control animals received an equal volume of vehicle control by IV or PO, respectively. Plasma samples were collected at 0.25, […], 1, 2, 3, 6, 8, 24, and 48 hours while liver specimens were collected at 8, 24, and 48 hours and drug concentration were measured by LC-MS/MS per standard protocols.
In brief, blood was immediately centrifuged, and the resulting plasma was frozen and stored at −80° C. until analysis. […] Compound concentrations were determined by a liquid chromatography-mass tandem spectrometry (LC-MS/MS) per routine method (Quintara Discovery, Hayward, Calif.) following the standard protocol. […]

The test system of data set [3] is Male C57BL/6 mice. Briefly: Liver panel in high fat diet mice. It is filed as in vivo. As to the method:
as §1
To assess animal health following compound exposure, a liver panel (Test Code #60405) was tested by IDEXX BioAnalytics (North Grafton, Mass.). […] Also of note, AST and ALT levels in the liver panel were elevated in the PO vehicle, which is attributed to the high fat diet used in the study (Envigo, #TD.90221).

Data set [4] can be described thus: Dissolution in dosing vehicle. It is filed as physicochemical. The following applies: 1% Tween-80 aqueous solution, 10-15 minutes sonication. On the procedure: as §1
[5] abbreviates: daily 15 mg/kg PO, 72-hour group, versus vehicle control.

Where only a bound is given, the exact number is not on record here.

T1 sequence (Q8NBP7 153-692): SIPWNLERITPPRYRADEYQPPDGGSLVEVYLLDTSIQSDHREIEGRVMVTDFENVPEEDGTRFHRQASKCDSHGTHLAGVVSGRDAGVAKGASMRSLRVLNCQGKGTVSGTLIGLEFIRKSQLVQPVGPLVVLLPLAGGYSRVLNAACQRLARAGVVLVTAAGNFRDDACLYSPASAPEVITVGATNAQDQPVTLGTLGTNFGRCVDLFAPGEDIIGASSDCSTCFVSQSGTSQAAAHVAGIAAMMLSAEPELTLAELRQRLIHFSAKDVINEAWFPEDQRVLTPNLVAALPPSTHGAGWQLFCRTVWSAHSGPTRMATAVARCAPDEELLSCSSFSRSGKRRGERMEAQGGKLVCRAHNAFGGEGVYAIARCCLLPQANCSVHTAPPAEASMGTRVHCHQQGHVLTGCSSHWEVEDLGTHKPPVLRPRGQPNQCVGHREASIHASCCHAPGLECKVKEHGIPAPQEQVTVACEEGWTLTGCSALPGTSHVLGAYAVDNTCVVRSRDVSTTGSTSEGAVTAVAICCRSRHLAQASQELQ

Turning to `Cc1cc(-c2ccc(F)cc2)ccc1C1CCCN(C2CCCC2)C1` (stereo not shown) [Compound 1,041, 1-cyclopentyl-3-(4′-fluoro-3-methyl-[1,1′-biphenyl]-4-yl)piperidine], the EC50 in data set [1] lay in the range of 500 to 1000 nM. The half-life was 4.8 h in data set [2] (IV 3 mg/kg) and 9.8 h in data set [2] (PO 15 mg/kg). In data set [3] (setting [5]), the “reduction in ALT levels” value was 77.7%. In addition, the “reduction in AST levels” value in data set [3] (setting [5]) was determined as 72.1%. Further, the liver panel toxicity result in data set [3] (three daily 15 mg/kg PO doses, 72 hours, versus PO vehicle) was “no overt toxicity”. For the same compound, the dissolved concentration in data set [4] is at least 1.5 mg/mL.

As a reminder, the EC50 is the midpoint of the concentration-response curve. Higher therefore signals lower potency in that assay. As a reminder, the half-life is the time in which the quantity being followed falls by half.
